Among the test systems are M14 melanoma; 786-0 renal; NCI-H522 lung; COLO 205 colon; OVCAR-3 ovarian; SF-295 CNS; CAKI-1 renal; MDA-MB-435; UO-31 renal; SNB-75 CNS; RPMI-8226 leukemia; SK-MEL-2 melanoma; NCI-H226 lung; SK-MEL-28 melanoma; MCF7 breast; UACC-257 melanoma; SF-539 CNS; LOX IMVI melanoma; IGROV1 ovarian.
What all share (test): inhibition of tumour cell growth, NCI panel, 48 h

SMILES strings stand for the structures.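 Briefly, cells in 96-well plates were exposed to five compound concentrations for 48 h, and endpoints were estimated by linear interpolation. TGI is the concentration that stops growth completely.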

In the case of `c1ccc(CSc2ccccc2CN2CCN(Cc3ccccc3SCc3ccccc3)CCN(Cc3ccccc3SCc3ccccc3)CC2)cc1`, the TGI in the test with M14 melanoma amounted to 2.93 µM; in the test with 786-0 renal, 3.01 µM; in the test with NCI-H522 lung, 1.76 µM; in the test with COLO 205 colon it was 2.21 µM; in the test on OVCAR-3 ovarian, 1.82 µM; in the test with SF-295 CNS, 2.45 µM. The TGI with CAKI-1 renal amounted to 11.3 µM; with MDA-MB-435, 12 µM; with UO-31 renal, 7.66 µM; in the test with SNB-75 CNS, 4.18 µM; with RPMI-8226 leukemia, 18 µM; in the test with SK-MEL-2 melanoma it was 2.83 µM. In addition, the TGI in the test with NCI-H226 lung was 3.46 µM; in the test on SK-MEL-28 melanoma it was 4.61 µM; with MCF7 breast, 3.32 µM; in the test on UACC-257 melanoma, 2.94 µM; with SF-539 CNS it was 3.54 µM; with LOX IMVI melanoma it was 2.75 µM.

Consider `CC1(C)O[C@H]([C@H](O)c2nnc3ccc(Cl)nn23)[C@@H]([C@H]2COC(C)(C)O2)O1`, for which the TGI in the test with M14 melanoma, in the test with 786-0 renal, with NCI-H522 lung, in the test on COLO 205 colon, with OVCAR-3 ovarian and in the test with SF-295 CNS was above 100 µM each time. The TGI in the test on CAKI-1 renal, with MDA-MB-435, with RPMI-8226 leukemia, in the test on SK-MEL-2 melanoma, with SK-MEL-28 melanoma and in the test with IGROV1 ovarian was above 100 µM each time. Besides, the TGI in the test with MCF7 breast, in the test on UACC-257 melanoma, in the test with SF-539 CNS and in the test with LOX IMVI melanoma was above 100 µM in each case.

For the compound `Cc1cc2nc3c(C#N)c(-c4ccccc4)/c(=C\Nc4ccc(Cl)cc4)c(=O)n3c2cc1C`, the TGI in the test on M14 melanoma, with 786-0 renal, in the test with NCI-H522 lung, with COLO 205 colon, with OVCAR-3 ovarian and in the test on SF-295 CNS was above 100 µM throughout. Also, the TGI in the test on CAKI-1 renal, in the test with MDA-MB-435, in the test with UO-31 renal, in the test on SNB-75 CNS, in the test on RPMI-8226 leukemia and in the test on SK-MEL-2 melanoma was above 100 µM throughout. The TGI in the test with NCI-H226 lung, with SK-MEL-28 melanoma, in the test with MCF7 breast, in the test on UACC-257 melanoma, in the test with SF-539 CNS and with LOX IMVI melanoma was above 100 µM in each case.

Consider `Cc1n[n+](CC(=O)c2ccccc2)c2sc(N)nn12`, for which the TGI in the test on M14 melanoma, in the test with 786-0 renal, in the test with NCI-H522 lung, in the test on COLO 205 colon, in the test on OVCAR-3 ovarian and with SF-295 CNS was above 100 µM throughout. The TGI with CAKI-1 renal, with MDA-MB-435, in the test on UO-31 renal, with SNB-75 CNS, with RPMI-8226 leukemia and with SK-MEL-2 melanoma was above 100 µM throughout. The TGI in the test with NCI-H226 lung, with SK-MEL-28 melanoma, with IGROV1 ovarian, with MCF7 breast, in the test on UACC-257 melanoma and with LOX IMVI melanoma was above 100 µM each time.

As for `[O-]c1c[n+](CCCC[n+]2cc([O-])on2)no1`, the TGI in the test on M14 melanoma, with 786-0 renal, in the test with NCI-H522 lung, in the test on COLO 205 colon, in the test on OVCAR-3 ovarian and in the test on SF-295 CNS was above 100 µM in each case. Also, the TGI with CAKI-1 renal, in the test on MDA-MB-435, in the test on UO-31 renal, in the test on SNB-75 CNS, in the test with RPMI-8226 leukemia and in the test on SK-MEL-2 melanoma was above 100 µM throughout. Besides, the TGI in the test with SK-MEL-28 melanoma, with IGROV1 ovarian, with MCF7 breast, in the test with UACC-257 melanoma, with SF-539 CNS and in the test with LOX IMVI melanoma was above 100 µM in each case.

As for `CC1(C)Oc2ccc3c(=O)c(-c4ccccc4)c(-c4ccccc4)oc3c2C1C(=O)O` (centres undefined), the TGI in the test with M14 melanoma, in the test with 786-0 renal, in the test with NCI-H522 lung, in the test with COLO 205 colon, with OVCAR-3 ovarian and with SF-295 CNS was above 100 µM in each case. For the same compound, the TGI in the test with CAKI-1 renal, with MDA-MB-435, in the test with SK-MEL-2 melanoma, with NCI-H226 lung, in the test on IGROV1 ovarian and in the test with MCF7 breast was above 100 µM each time. Moreover, the TGI in the test on UACC-257 melanoma and in the test on SF-539 CNS was above 100 µM throughout.

Turning to `C=CC(CBr)CCC(Br)C(C)(C)Br` (centres undefined), the TGI in the test with M14 melanoma, in the test on 786-0 renal, in the test with NCI-H522 lung, in the test on COLO 205 colon, with OVCAR-3 ovarian and in the test on SF-295 CNS was above 10 µM each time. For the same compound, the TGI in the test with CAKI-1 renal, in the test on MDA-MB-435, in the test with UO-31 renal, with SNB-75 CNS, in the test on RPMI-8226 leukemia and in the test on SK-MEL-2 melanoma was above 10 µM in each case. In addition, the TGI with NCI-H226 lung, with SK-MEL-28 melanoma, in the test with IGROV1 ovarian, with MCF7 breast, in the test on UACC-257 melanoma and in the test on SF-539 CNS was above 10 µM in each case.

As for `CC1=[N+]([O-])C(C)(C)N(N=O)C1(C)C`, the TGI in the test on M14 melanoma, in the test with 786-0 renal, in the test with NCI-H522 lung, in the test with COLO 205 colon, in the test on OVCAR-3 ovarian and in the test on SF-295 CNS was above 10 µM in each case. The TGI in the test on CAKI-1 renal, with MDA-MB-435, in the test with UO-31 renal, in the test on RPMI-8226 leukemia, with SK-MEL-2 melanoma and in the test on NCI-H226 lung was above 10 µM in each case. Also, the TGI in the test with MCF7 breast and with UACC-257 melanoma was above 10 µM each time.

The values above are taken from PubChem BioAssay (NCI).
